{"source": "patent US8722626B2", "about": "“Method for controlling fibrosis and other pathological deposits in tissues comprising administering a GHRP-6 composition” (Centro de Ingenieria Genetica y Biotecnologia, priority 2006, dated 2014)", "key": {"[1]": {"tested_on": "human keloid fragments xeno-transplanted in athymic mice", "experiment": "Human keloid fragments xeno-transplanted into athymic mice (Example 7)", "format": "in vivo, mouse", "details": "for No. of fields positive to collagen-specific staining: Picrosirius red and trichromic Masson's staining, 4× and 10× averaged; for No. of fields positive to collagen-specific staining / No. of microscopic fields with mast cells (20X magnif.): infiltrated once every 24 hrs during 7 days; for No. of microscopic fields with mast cells (20X magnif.): aniline blue staining; for Hydroxiproline content in the tissue / Wet weight of the graft collected: infiltrated at the edges in the implants once every 24 hrs during 7 days, 5 micrograms to 1 milligram", "source_text": "To study the effect of peptides GHRP-6, GHRP-2, Hexarelin and/or Ghrelin in eradicating the pathological deposits of physiological material in the skin, human keloid fragments were xeno-transplanted into the dorsal region in athymic mice. After 72 hrs of evolution, to corroborate grafting and viability of xeno-transplants, the animals (N=6) were randomly distributed into the following experimental groups: • A—Saline control group (vehicle of the active principles). • B—Group receiving GHRP-6. • C—Group receiving GHRP-2. • D—Group receiving Ghrelin. • E—Group receiving Hexarelin. • Treatments were applied once every 24 hrs during 7 days. The substances were infiltrated at the edges in the implants, for local bioavailability of the active principles, at dosages from 5 micrograms to 1 milligram. After the treatment period, the animals were sacrificed and the implants extracted to evaluate the pharmacological response to every substance. Samples were weighed and fragmented for histological studies and biochemical determinations of collagen. The fragments for histological studies were fixed in 10% formalin neutral, and those fragments for biochemical analyses were stored at −70° C. • The parameters studied were: • a—Wet weight of the graft collected. • b—Hydroxiproline content in the tissue. • c—Number of microscopic fields with tissue positive to Picrosirius red staining and trichromic Masson's staining."}, "[2]": {"tested_on": "transgenic mice over-expressing one mutated form of the NOTCH 3 gene", "experiment": "Dementia of vascular origin: transgenic mice over-expressing mutated NOTCH 3 gene (CADASIL model, Example 6)", "format": "in vivo, mouse", "design": "SODt (oxidative stress marker) / Cabalase (oxidative stress marker) / HPT (oxidative stress marker) / MDA (oxidative stress marker): unit not given here", "details": "100 μg/kg i.p. twice a week, 16 weeks; for Cabalase (oxidative stress marker) / Cerebral Myo-inositol / HPT (oxidative stress marker) / MDA (oxidative stress marker) / SODt (oxidative stress marker): brain; for No. of blood vessels positive to Congo Red / No. of blood vessels positive to Nissl / No. of hemorrhagic foci. / No. of subcortical infarctions.: cerebral tissues", "procedure": "This experiment was conducted to evaluate the efficacy of pharmaceutical compositions indistinctly containing one of the peptides GHRP-6, GHRP-2, hexarelin or ghrelin on the central neurofunctional involution process in transgenic mice over-expressing one mutated form of the NOTCH 3 gene in blood vessel smooth muscle cells. These animals develop in terms of months an arteriopathy similar to that of the CASADIL disease, referred to the descriptive memory, and is occurring as one of the main causes of vascular dementia. In these animals, vascular lesions also include retinal-cerebral, cerebral and cochlear vasculopathies. The beta-amiloid material present in the brain and blood vessels, the deposit of osmophilic granular material in brain and meningeal artery walls and their reduced lumen are histopathologically relevant. White-pale zones, microinfarction and hemorrhagic foci zones appear in the brain and its main nervous trunks.\nEighteen- to twenty-months-old male mice were employed when evidenced the symptoms of the disease. The animals were randomly assigned to the following experimental treatment groups: • A—Placebo group receiving the physiological saline solution. • B—Group receiving GHRP-6 at a 100 μg/kg dosage. • C—Group receiving GHRP-2 at a 100 μg/kg dosage. • D—Group receiving Ghrelin at a 100 μg/kg dosage. • E—Group receiving Hexarelin at a 100 μg/kg dosage.\nTreatments were applied twice a week during 16 weeks by intraperitoneal route. When treatments concluded, autopsy studies were conducted irrespective of the clinical improvement evidenced in a great number of animals treated. Brain tissue samples including meningeal tissues were collected for biochemical and histopathological determinations. The animals received anesthesia overdosed and subjected to intra-cardiac perfusion with cold physiological saline solution to wash off the blood present in the encephala. The encephala were extracted and one encephalon was frozen in dry-ice and the other was fixed in 4% para-formaldehyde neutral. Samples were cryo-sliced at 10 μm and slices were stained with hematoxylin/eosin, Congo Red, or incubated with an antibody specific for the beta-amiloid protein. Morphometric procedures were carried out by microscopic imaging capture by a camera connected to the microscope, and the images were analyzed with the DIGIPAT software.\nNumber of fibrillar deposits of beta-amiloid in blood vessels.\nNumber of sub-cortical infarctions.\nNumber of sub-cortical hemorrhages.\nBrain concentration of myo-inositol as indicator of aging and brain metabolism deterioration (μmol/g of tissue).\nBrain oxidative stress markers."}}, "note": "Square brackets hold non-standard residues; d marks the D form. Ends that are not written are not given here. Peptide text beside a SMILES is read from it. * marks the point of attachment. dTrp(2-Me) = Cc1[nH]c2ccccc2c1C[C@@H](N)C(=O)O; Octanoyl = CCCCCCCC(=O)*", "data": [{"compound": "Ghrelin: secretagogue peptide; active principle of the pharmaceutical composition (GSS(Octanoyl)FLSPEHQRVQQRKESKKPPAKLQPR; ends and bridges not checked; UniProt Q9UBU3 24-51, looked up)", "values": [{"measurement": "No. of fields positive to collagen-specific staining", "setting": "[1]", "result": 11.27}, {"measurement": "No. of microscopic fields with mast cells (20X magnif.)", "setting": "[1]", "result": "10.71 ± 4.57"}, {"measurement": "Hydroxiproline content in the tissue", "setting": "[1]", "result": "85.23 ± 4.11", "unit": "µg/g"}, {"measurement": "Wet weight of the graft collected", "setting": "[1]", "result": "6.67 ± 1.53", "unit": "a grams"}, {"measurement": "Cabalase (oxidative stress marker)", "setting": "[2]", "result": "44.67 ± 11.58"}, {"measurement": "Cerebral Myo-inositol", "setting": "[2]", "result": "14.04 ± 3.85 μmol/g of tissue"}, {"measurement": "HPT (oxidative stress marker)", "setting": "[2]", "result": "142.16 ± 10.01"}, {"measurement": "MDA (oxidative stress marker)", "setting": "[2]", "result": "0.261 ± 0.03"}, {"measurement": "SODt (oxidative stress marker)", "setting": "[2]", "result": "12290.9 ± 60.32"}, {"measurement": "No. of blood vessels positive to Congo Red", "setting": "[2]", "result": "17.67 ± 2.26"}, {"measurement": "No. of blood vessels positive to Nissl", "setting": "[2]", "result": "11.27 ± 4.61"}, {"measurement": "No. of hemorrhagic foci.", "setting": "[2]", "result": "13.06 ± 2.77"}, {"measurement": "No. of subcortical infarctions.", "setting": "[2]", "result": "26.9 ± 4.27"}]}, {"compound": "Cc1[nH]c2ccccc2c1C[C@@H](NC(=O)[C@@H](N)Cc1cnc[nH]1)C(=O)N[C@@H](C)C(=O)N[C@@H](Cc1c[nH]c2ccccc12)C(=O)N[C@H](Cc1ccccc1)C(=O)N[C@@H](CCCCN)C(N)=O", "note": "[Hexarelin] (H-H[dTrp(2-Me)]AW[dF]K-NH2)", "values": [{"measurement": "No. of fields positive to collagen-specific staining", "setting": "[1]", "result": 12.35}, {"measurement": "No. of microscopic fields with mast cells (20X magnif.)", "setting": "[1]", "result": "10.18 ± 2.98"}, {"measurement": "Hydroxiproline content in the tissue", "setting": "[1]", "result": "88.59 ± 6.58", "unit": "µg/g"}, {"measurement": "Wet weight of the graft collected", "setting": "[1]", "result": "6.25 ± 1.73", "unit": "a grams"}, {"measurement": "Cabalase (oxidative stress marker)", "setting": "[2]", "result": "51.19 ± 7.84"}, {"measurement": "Cerebral Myo-inositol", "setting": "[2]", "result": "11.88 ± 2.71 μmol/g of tissue"}, {"measurement": "HPT (oxidative stress marker)", "setting": "[2]", "result": "54.3 ± 11.87"}, {"measurement": "MDA (oxidative stress marker)", "setting": "[2]", "result": "0.284 ± 0.01"}, {"measurement": "SODt (oxidative stress marker)", "setting": "[2]", "result": "10814.68 ± 33.08"}, {"measurement": "No. of blood vessels positive to Congo Red", "setting": "[2]", "result": "15.24 ± 1.24"}, {"measurement": "No. of blood vessels positive to Nissl", "setting": "[2]", "result": "11.36 ± 6.4"}, {"measurement": "No. of hemorrhagic foci.", "setting": "[2]", "result": "14.61 ± 3.31"}, {"measurement": "No. of subcortical infarctions.", "setting": "[2]", "result": "27.11 ± 3.55"}]}, {"compound": "GHRP-2", "values": [{"measurement": "No. of fields positive to collagen-specific staining", "setting": "[1]", "result": 18.12}, {"measurement": "No. of microscopic fields with mast cells (20X magnif.)", "setting": "[1]", "result": "11.17 ± 3.33"}, {"measurement": "Hydroxiproline content in the tissue", "setting": "[1]", "result": "84.17 ± 7.75", "unit": "µg/g"}, {"measurement": "Wet weight of the graft collected", "setting": "[1]", "result": "7.14 ± 1.02", "unit": "a grams"}, {"measurement": "Cabalase (oxidative stress marker)", "setting": "[2]", "result": "48.23 ± 14.25"}, {"measurement": "Cerebral Myo-inositol", "setting": "[2]", "result": "14.65 ± 4.38 μmol/g of tissue"}, {"measurement": "HPT (oxidative stress marker)", "setting": "[2]", "result": "117 ± 13.55"}, {"measurement": "MDA (oxidative stress marker)", "setting": "[2]", "result": "0.302 ± 0.01"}, {"measurement": "SODt (oxidative stress marker)", "setting": "[2]", "result": "11065.49 ± 46.29"}, {"measurement": "No. of blood vessels positive to Congo Red", "setting": "[2]", "result": "18.26 ± 4.57"}, {"measurement": "No. of blood vessels positive to Nissl", "setting": "[2]", "result": "13.8 ± 6.76"}, {"measurement": "No. of hemorrhagic foci.", "setting": "[2]", "result": "11.79 ± 4.25"}, {"measurement": "No. of subcortical infarctions.", "setting": "[2]", "result": "30.13 ± 5.72"}]}]}
